The values below come from ChEMBL document CHEMBL5726194, “Benzenesulfonamide compounds and their use as therapeutic agents” (2017).

Broadly, the IC50 is the concentration that gives 50% inhibition. Low values mean greater potency in that assay, high ones weaker potency in that assay.

This test in a line: Electrophysiological Assay : The following patch voltage clamp electrophysiology studies were performed on representative compounds of the invention using human embryonic kidney cells (HEK), permanently transfected with an expression vector containing the full-length cDNA coding for the desired human sodium channel α-subunit, grown in culture media containing 10% FBS, 1% PSG, and 0.5 mg/mL G418 at 37° C. with 5% CO2. […] Nav1.7 and Nav1.5 cDNAs (NM_002977 and AC137587; SCN5A, respectively) were stably expressed in HEK-293 cells. The β1 subunit was coexpressed only in the Nav1.7 cell line. It is filed as cell-based.

Each structure is given as a SMILES string.

`O=S(=O)(Nc1ncns1)c1cc(F)c(OC[C@@H]2CNCC[C@H]2c2ccc(F)c(C(F)(F)F)c2)cc1F` (relative stereo) registered a half-inhibitory concentration (IC50) of 71 nM.
